Reference: US7723527B2 (Janssen Pharmaceutica NV, priority 2003, dated 2010)

Target: T1, human histamine H4 receptor (Homo sapiens, UniProt Q9H3N8)
T1 construct: expressed in transfected cells; host or cells: SK-N-MC cells or COS7 cells, transiently transfected; cell membranes used
Assay: Binding assay on recombinant human histamine H4 receptor (3H-histamine displacement)
Settings: competition binding with 3H-histamine; membranes of SK-N-MC or COS7 cells expressing human H4 receptor; Cheng-Prusoff, KD 5 nM, ligand 5 nM
Protocol: SK—N-MC cells or COS7 cells were transiently transfected with pH4R and grown in 150 cm^2 tissue culture dishes. Cells were washed with saline solution, scraped with a cell scraper and collected by centrifugation (1000 rpm, 5 min). Cell membranes were prepared by homogenization of the cell pellet in 20 mM Tris-HCl with a polytron tissue homogenizer for 10 s at high speed. Homogenate was centrifuged at 1000 rpm for 5 min at 4° C. The supernatant was then collected and centrifuged at 20,000×g for 25 min at 4° C. The final pellet was resuspended in 50 mM Tris-HCl. Cell membranes were incubated with ^3H-histamine (5-70 nM) in the presence or absence of excess histamine (10,000 nM). Incubation occurred at room temperature for 45 min. Membranes were harvested by rapid filtration over Whatman GF/C filters and washed 4 times with ice-cold 50 mM Tris HCl. Filters were then dried, mixed with scintillant and counted for radioactivity. SK—N-MC or COS7 cells expressing human histamine H4 receptor were used to measure the affinity of binding of other compounds and their ability to displace ^3H-ligand binding by incubating the above-described reaction in the presence of various concentrations of inhibitor or compound to be tested.

Row | SMILES | Ki
1 | Cc1cc(C)c2nc(-c3cnc(OCCCC4CCN(C)CC4)cc3Cl)[nH]c2c1 [Example 118, 2-{4-Chloro-6-[3-(1-methyl-piperidin-4-yl)-propoxy]-pyridin-3-yl}-4,6-dimethyl-1H-benzoimidazole] | 4 nM
2 | Cc1cc(OCCCC2CCNCC2)ccc1-c1nc2c(C)cc(Cl)cc2[nH]1 [Example 88, 6-Chloro-4-methyl-2-[2-methyl-4-(3-piperidin-4-yl-propoxy)-phenyl]-1H-benzoimidazole] | 52 nM
3 | Cc1cccc2[nH]c(-c3cnc(OCCCC4CCN(C)CC4)cc3Cl)nc12 [Example 116, 2-{4-Chloro-6-[3-(1-methyl-piperidin-4-yl)-propoxy]-pyridin-3-yl}-4-methyl-1H-benzoimidazole] | 12 nM
4 | CN1CCC(CCCCOc2cc(-c3nc4cc(Cl)ccc4[nH]3)c(Cl)cn2)CC1 [Example 170, 5-Chloro-2-{5-chloro-2-[4-(1-methyl-piperidin-4-yl)-butoxy]-pyridin-4-yl}-1H-benzoimidazole] | 5 nM
5 | Cc1cnc(OCCCCC2CCN(C)CC2)cc1-c1nc2c(C)c(C)ccc2[nH]1 [Example 168, 4,5-Dimethyl-2-{5-methyl-2-[4-(1-methyl-piperidin-4-yl)-butoxy]-pyridin-4-yl}-1H-benzoimidazole] | 6 nM
6 | Cc1cc(C)c2nc(-c3cnc(OCCCC4CCN(C)CC4)cc3C)[nH]c2c1 [Example 113, 4,6-Dimethyl-2-{4-methyl-6-[3-(1-methyl-piperidin-4-yl)-propoxy]-pyridin-3-yl}-1H-benzoimidazole] | 4 nM
7 | Cc1cc(C)c2nc(-c3cc(OCCCCC4CCN(C)CC4)ncc3Br)[nH]c2c1 [Example 131, 2-{5-Bromo-2-[4-(1-methyl-piperidin-4-yl)-butoxy]-pyridin-4-yl}-4,6-dimethyl-1H-benzoimidazole] | 3 nM
8 | Cc1c(F)ccc2[nH]c(-c3cccc(OCCCCC4CCN(C)CC4)c3)nc12 [Example 95, 6-Fluoro-7-methyl-2-{3-[4-(1-methyl-piperidin-4-yl)-butoxy]-phenyl}-1H-benzoimidazole] | 4 nM
9 | Cc1cc(C)c2nc(-c3cccc(OCCCCC4CCN(C)CC4)c3C)[nH]c2c1 [Example 99, 5,7-Dimethyl-2-{2-methyl-3-[4-(1-methyl-piperidin-4-yl)-butoxy]-phenyl}-1H-benzoimidazole] | 38 nM
10 | Cc1c(F)ccc2[nH]c(-c3ccc(OCCCC4CCN(C)CC4)cc3CO)nc12 [Example 176, {2-(5-Fluoro-4-methyl-1H-benzoimidazol-2-yl)-5-[3-(1-methyl-piperidin-4-yl)-propoxy]-phenyl}-methanol] | 4 nM
11 | Cc1cc(OCCCN2CCNCC2C)ccc1-c1nc2cc(C(C)(C)C)ccc2[nH]1 (stereo not drawn) [Example 86, 5-tert-Butyl-2-{2-methyl-4-[3-(2-methyl-piperazin-1-yl)-propoxy]-phenyl}-1H-benzoimidazole] | 103 nM
12 | Cc1cnc(OCCCCC2CCN(C)CC2)cc1-c1nc2c(C)c(F)ccc2[nH]1 [Example 165, 5-Fluoro-4-methyl-2-{5-methyl-2-[4-(1-methyl-piperidin-4-yl)-butoxy]-pyridin-4-yl}-1H-benzoimidazole] | 3 nM
13 | Cc1c(F)ccc2[nH]c(-c3ccnc(OCCCCC4CCN(C)CC4)c3)nc12 [Example 147, 5-Fluoro-4-methyl-2-{2-[4-(1-methyl-piperidin-4-yl)-butoxy]-pyridin-4-yl}-1H-benzoimidazole] | 8 nM
14 | Cc1cc(C)c2nc(-c3cc(OCCCCC4CCN(C)CC4)ncc3CO)[nH]c2c1 [Example 177, {4-(4,6-Dimethyl-1H-benzoimidazol-2-yl)-6-[4-(1-methyl-piperidin-4-yl)-butoxy]-pyridin-3-yl}-methanol] | 4 nM
15 | Cc1cccc2[nH]c(-c3ccnc(OCCCCN4CCN(C)CC4)c3)nc12 [Example 139, 4-Methyl-2-{2-[4-(4-methyl-piperazin-1-yl)-butoxy]-pyridin-4-yl}-1H-benzoimidazole] | 69 nM
16 | Cc1cc(Cl)cc2[nH]c(-c3ccnc(OCCCCN4CCN(C)CC4)c3)nc12 [Example 142, 6-Chloro-4-methyl-2-{2-[4-(4-methyl-piperazin-1-yl)-butoxy]-pyridin-4-yl}-1H-benzoimidazole] | 73 nM
17 | Cc1cc2nc(-c3cccc(OCCCCN4CCN(C)CC4)c3)[nH]c2cc1C [Example 29, 5,6-Dimethyl-2-{3-[4-(4-methyl-piperazin-1-yl)-butoxy]-phenyl}-1H-benzoimidazole] | 326 nM
18 | Cc1ccc2[nH]c(-c3cc(OCCCCC4CCN(C)CC4)ncc3Br)nc2c1C [Example 132, 2-{5-Bromo-2-[4-(1-methyl-piperidin-4-yl)-butoxy]-pyridin-4-yl}-4,5-dimethyl-1H-benzoimidazole] | 5 nM

The remaining lines, values ahead:

Row | Ki | SMILES
19 | 89 nM | Cc1cc2[nH]c(-c3ccc(OCCCN4CCCN(C)CC4)c(Cl)c3)nc2cc1Cl [Example 10, 5-Chloro-2-{3-chloro-4-[3-(4-methyl-[1,4]diazepan-1-yl)-propoxy]-phenyl}-6-methyl-1H-benzoimidazole]
20 | 82 nM | CN1CCN(CCCOc2ccc(-c3nc4cc(Cl)ccc4[nH]3)cc2Cl)CC1 [Example 43, 5-Chloro-2-{3-chloro-4-[3-(4-methyl-piperazin-1-yl)-propoxy]-phenyl}-1H-benzoimidazole]
21 | 121 nM | CN1CCN(CCCOc2ccc(-c3nc4cc5c(cc4[nH]3)OCO5)c(Cl)c2)CC1 [Example 76, 6-{2-Chloro-4-[3-(4-methyl-piperazin-1-yl)-propoxy]-phenyl}-5H-[1,3]dioxolo[4′,5′:4,5]benzo[1,2-d]imidazole]
22 | 21 nM | CN1CCN(CCCOc2ccc(-c3nc4cc(OC(F)(F)F)ccc4[nH]3)c(Cl)c2)CC1 [Example 3, 2-{2-Chloro-4-[3-(4-methyl-piperazin-1-yl)-propoxy]-phenyl}-5-trifluoromethoxy-1H-benzoimidazole]
23 | 9 nM | Cc1ccc2[nH]c(-c3ccc(OCCCN4CCCN(C)CC4)cc3Cl)nc2c1C [Example 28, 2-{2-Chloro-4-[3-(4-methyl-[1,4]diazepan-1-yl)-propoxy]-phenyl}-4,5-dimethyl-1H-benzoimidazole]
24 | 86 nM | Cc1ccc2[nH]c(-c3ccc(OCCCC4CCN(C)CC4)cc3Cl)nc2c1C [Example 59, 2-{2-Chloro-4-[3-(1-methyl-piperidin-4-yl)-propoxy]-phenyl}-4,5-dimethyl-1H-benzoimidazole]
25 | 121 nM | Cc1ccc2[nH]c(-c3ccc(OCCCC4CCN(C)CC4)cc3)nc2c1 [Example 64, 5-Methyl-2-{4-[3-(1-methyl-piperidin-4-yl)-propoxy]-phenyl}-1H-benzoimidazole]
26 | 1 nM | Cc1cc(OCCCC2CCN(C)CC2)ccc1-c1nc2cc(F)ccc2[nH]1 [Example 67, 5-Fluoro-2-{2-methyl-4-[3-(1-methyl-piperidin-4-yl)-propoxy]-phenyl}-1H-benzoimidazole]
27 | 278 nM | COc1ccc2[nH]c(-c3ccc(OCCCN4CCN(C)CC4)c(Cl)c3)nc2c1 [Example 51, 2-{3-Chloro-4-[3-(4-methyl-piperazin-1-yl)-propoxy]-phenyl}-5-methoxy-1H-benzoimidazole]
28 | 109 nM | CN1CCN(CCCOc2ccc(-c3nc4cc(Cl)c(F)cc4[nH]3)cc2F)CC1 [Example 24, 5-Chloro-6-fluoro-2-{3-fluoro-4-[3-(4-methyl-piperazin-1-yl)-propoxy]-phenyl}-1H-benzoimidazole]
29 | 22 nM | Cc1c(F)ccc2[nH]c(-c3ccc(OCCCN4CCN(C)CC4)cc3Cl)nc12 [Example 74, 2-{2-Chloro-4-[3-(4-methyl-piperazin-1-yl)-propoxy]-phenyl}-5-fluoro-4-methyl-1H-benzoimidazole]
30 | 41 nM | Cc1cc(Cl)cc2[nH]c(-c3ccc(OCCCN4CCN(C)CC4)nc3)nc12 [Example 103, 6-Chloro-4-methyl-2-{6-[3-(4-methyl-piperazin-1-yl)-propoxy]-pyridin-3-yl}-1H-benzoimidazole]
31 | 26 nM | Cc1ccc2[nH]c(-c3ccc(OCCCC4CCN(C)CC4)nc3)nc2c1C [Example 107, 4,5-Dimethyl-2-{6-[3-(1-methyl-piperidin-4-yl)-propoxy]-pyridin-3-yl}-1H-benzoimidazole]
32 | 112 nM | CN1CCN(CCCOc2ccc(-c3nc4cc(Cl)c(F)cc4[nH]3)cc2Cl)CC1 [Example 34, 5-Chloro-2-{3-chloro-4-[3-(4-methyl-piperazin-1-yl)-propoxy]-phenyl}-6-fluoro-1H-benzoimidazole]
33 | 78 nM | Cc1cc2[nH]c(-c3ccc(OCCCN4CCN(C)CC4)c(C)c3)nc2cc1Cl [Example 41, 5-Chloro-6-methyl-2-{3-methyl-4-[3-(4-methyl-piperazin-1-yl)-propoxy]-phenyl}-1H-benzoimidazole]
34 | 81 nM | COc1cc(-c2nc3cc(C(F)(F)F)ccc3[nH]2)ccc1OCCCN1CCN(C)CC1 [Example 33, 2-{3-Methoxy-4-[3-(4-methyl-piperazin-1-yl)-propoxy]-phenyl}-5-trifluoromethyl-1H-benzoimidazole]
35 | 9 nM | Cc1cccc2[nH]c(-c3ccc(OCCCC4CCN(C)CC4)cc3Cl)nc12 [Example 2, 2-{2-Chloro-4-[3-(1-methyl-piperidin-4-yl)-propoxy]-phenyl}-4-methyl-1H-benzoimidazole]
36 | 872 nM | COc1cc(OCCCN2CCN(C)CC2)ccc1-c1nc2cc(C(F)(F)F)ccc2[nH]1 [Example 53, 2-{2-Methoxy-4-[3-(4-methyl-piperazin-1-yl)-propoxy]-phenyl}-5-trifluoromethyl-1H-benzoimidazole]
